This experiment has as its target T1, LepI (Aspergillus flavus, UniProt B8NJH3).
T1 sequence (B8NJH3 1-387): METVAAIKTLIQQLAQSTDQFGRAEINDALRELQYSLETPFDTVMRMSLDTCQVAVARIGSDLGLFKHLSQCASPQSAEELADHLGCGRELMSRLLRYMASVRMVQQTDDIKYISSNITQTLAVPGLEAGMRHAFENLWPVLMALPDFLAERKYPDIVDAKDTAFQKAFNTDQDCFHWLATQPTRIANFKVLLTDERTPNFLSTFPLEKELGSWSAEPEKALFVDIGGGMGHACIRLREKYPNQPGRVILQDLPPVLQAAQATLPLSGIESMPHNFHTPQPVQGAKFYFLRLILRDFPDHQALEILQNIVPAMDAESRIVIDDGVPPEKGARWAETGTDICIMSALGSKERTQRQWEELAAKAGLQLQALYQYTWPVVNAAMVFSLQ
Briefly: HPLC time course, inhibition of retro-Claisen rearrangement. The class given is biochemical. The settings on record: read-out: % inhibition at 250 μM.

The values below come from article PMC5679075 (Nature, 2017).

Bounds are passed on as bounds.

By inhibition is commonly meant how much of the control response was suppressed. As to `Nc1ncnc2c1ncn2[C@@H]1O[C@H](CSCC[C@H](N)C(=O)O)[C@@H](O)[C@H]1O` [SAH], the inhibition at 250 µM was over 90%.
